Test results from US12024503B2, “Benzethers and anilines of pyrazolyl-amino-pyrimidinyl derivatives, and compositions and methods thereof” (LYNK PHARMACEUTICALS CO. LTD., priority 2019, dated 2024).
Read-outs that look alike come from different tables or passages of the source.

Key:
Format in all cases: biochemical
JAK1 = target: T1, JAK1 (Homo sapiens, UniProt P23458); assay: JAK1 microfluidic kinase assay (Caliper EZ Reader II, FAM labeled peptide substrate); settings: (5 nM), 1 mM ATP
T1 construct: purchased Carna Biosciences
Protocol: (§1) Compounds were tested against JAK1, JAK2, JAK2V617F and TYK2.
(§2) Assay Formats: JAK activity was determined in the reaction buffer 50 mM HEPES, 0.01% Brij35, 10 mMMgCl2, 2 mMDTT by a microfluidic assay. The phosphorylation of a FAM labeled peptide substrate was monitored in the Caliper EZ Reader II (Perkin Elmer). The assay condition for each batch of enzyme (Carna Biosciences) was optimized to obtain 10% conversion rate of peptide substrate.
(§3) The test compounds were dissolved in DMSO to a stock concentration of 10 mM. 3-fold serially diluted compounds with top concentration of 5 μM were pre-incubated with JAK1, JAK2, JAK2V617F or TYK2 for 10 min at ambient temperature. The final DMSO concentration of assay mixture was 1%. FAM labeled peptide substrate (final concentration […]) and ATP (1 mM concentration) were sequentially added to initiate the kinase reaction at 28° C. The reaction was stopped by adding 50 mMEDTA. The reaction time for JAK1, JAK2, JAK2V617F and TYK2 was 120 min, 20 min, 30 min and 10 min, respectively.
(§4) The well in the test plate without enzyme was defined as 100% inhibition. And the well without compound but with equivalent DMSO was defined as no inhibition. The percent inhibition was calculated by the following formula. % Inhibition=(Conversionmax−Conversionsample)/(Conversionmax−Conversionmin)*100Conversionmax means the conversion rate in the positive well without addition of compound Conversionmin means the conversion rate in the well without addition of enzyme Conversionsample means the conversion rate of test compounds
(§5) The dose-response (percent inhibition) curve was plotted and IC50 values were determined by GraphPad software.

TYK2 = target: T2, TYK2 (Homo sapiens, UniProt P29597); assay: TYK2 microfluidic kinase assay (Caliper EZ Reader II, FAM labeled peptide substrate); settings: (2.5 nM), 1 mM ATP
T2 construct: purchased Carna Biosciences
Protocol: as §1, §2, §3, §4, §5

JAK2 = target: T3, JAK2 (Homo sapiens, UniProt O60674); assay: JAK2 microfluidic kinase assay (Caliper EZ Reader II, FAM labeled peptide substrate); settings: (0.25 nM), 1 mM ATP
T3 construct: purchased Carna Biosciences
Protocol: as §1, §2, §3, §4, §5

JAK2V617F = target: T4, JAK2V617F (Homo sapiens, UniProt O60674, V617F); assay: JAK2V617F microfluidic kinase assay (Caliper EZ Reader II, FAM labeled peptide substrate); settings: (2.5 nM), 1 mM ATP
T4 construct: purchased Carna Biosciences
Protocol: as §1, §2, §3, §4, §5

[1] = Table 2, read-out: IC50 JAK1 (5 nM) (1 mM ATP)
[2] = Table 2, read-out: IC50 TYK2 (2.5 nM) (1 mM ATP)
[3] = Table 2, read-out: IC50 JAK2 (0.25 nM) (1 mM ATP)
[4] = Table 2, read-out: IC50 J2V617F (2.5 nM) (1 mM ATP)
[5] = Table 3B, literature compounds, read-out: JAK1 (5 nM) (1 mM ATP)
[6] = Table 3B, literature compounds, read-out: TYK2 (2.5 nM) (1 mM ATP)
[7] = Table 3B, literature compounds, read-out: JAK2 (0.25 nM) (1 mM ATP)
[8] = Table 3B, literature compounds, read-out: J2V617F (2.5 nM) (1 mM ATP)

T3 sequence (O60674 whole entry): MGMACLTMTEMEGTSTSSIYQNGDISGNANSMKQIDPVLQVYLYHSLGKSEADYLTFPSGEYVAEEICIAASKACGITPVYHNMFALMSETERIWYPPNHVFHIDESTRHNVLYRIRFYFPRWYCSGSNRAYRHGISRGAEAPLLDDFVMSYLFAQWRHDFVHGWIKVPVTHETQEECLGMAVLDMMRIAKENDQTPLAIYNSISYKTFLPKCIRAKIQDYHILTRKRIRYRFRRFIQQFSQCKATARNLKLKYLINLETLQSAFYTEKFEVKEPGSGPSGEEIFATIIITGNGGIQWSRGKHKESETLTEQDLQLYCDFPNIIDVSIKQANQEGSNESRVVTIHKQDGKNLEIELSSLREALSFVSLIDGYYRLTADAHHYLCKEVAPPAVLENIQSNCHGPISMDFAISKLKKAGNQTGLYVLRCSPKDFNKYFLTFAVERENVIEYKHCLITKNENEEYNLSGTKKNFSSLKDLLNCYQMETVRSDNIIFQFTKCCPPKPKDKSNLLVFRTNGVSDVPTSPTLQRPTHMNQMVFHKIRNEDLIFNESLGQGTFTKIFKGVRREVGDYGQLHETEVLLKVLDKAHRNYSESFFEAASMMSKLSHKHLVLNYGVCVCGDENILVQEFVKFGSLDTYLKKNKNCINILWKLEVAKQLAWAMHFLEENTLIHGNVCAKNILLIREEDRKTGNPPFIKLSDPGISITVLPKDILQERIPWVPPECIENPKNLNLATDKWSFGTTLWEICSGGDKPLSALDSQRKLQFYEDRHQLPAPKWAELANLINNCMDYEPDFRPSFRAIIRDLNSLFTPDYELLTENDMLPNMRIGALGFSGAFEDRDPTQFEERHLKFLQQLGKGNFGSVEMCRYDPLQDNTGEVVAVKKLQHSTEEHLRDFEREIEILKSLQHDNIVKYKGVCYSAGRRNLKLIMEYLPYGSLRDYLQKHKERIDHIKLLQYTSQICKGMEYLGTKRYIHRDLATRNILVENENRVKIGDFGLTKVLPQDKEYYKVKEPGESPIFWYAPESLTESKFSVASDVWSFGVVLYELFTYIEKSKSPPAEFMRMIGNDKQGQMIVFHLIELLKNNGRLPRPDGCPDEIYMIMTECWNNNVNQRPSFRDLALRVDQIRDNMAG
T2 sequence (P29597 whole entry): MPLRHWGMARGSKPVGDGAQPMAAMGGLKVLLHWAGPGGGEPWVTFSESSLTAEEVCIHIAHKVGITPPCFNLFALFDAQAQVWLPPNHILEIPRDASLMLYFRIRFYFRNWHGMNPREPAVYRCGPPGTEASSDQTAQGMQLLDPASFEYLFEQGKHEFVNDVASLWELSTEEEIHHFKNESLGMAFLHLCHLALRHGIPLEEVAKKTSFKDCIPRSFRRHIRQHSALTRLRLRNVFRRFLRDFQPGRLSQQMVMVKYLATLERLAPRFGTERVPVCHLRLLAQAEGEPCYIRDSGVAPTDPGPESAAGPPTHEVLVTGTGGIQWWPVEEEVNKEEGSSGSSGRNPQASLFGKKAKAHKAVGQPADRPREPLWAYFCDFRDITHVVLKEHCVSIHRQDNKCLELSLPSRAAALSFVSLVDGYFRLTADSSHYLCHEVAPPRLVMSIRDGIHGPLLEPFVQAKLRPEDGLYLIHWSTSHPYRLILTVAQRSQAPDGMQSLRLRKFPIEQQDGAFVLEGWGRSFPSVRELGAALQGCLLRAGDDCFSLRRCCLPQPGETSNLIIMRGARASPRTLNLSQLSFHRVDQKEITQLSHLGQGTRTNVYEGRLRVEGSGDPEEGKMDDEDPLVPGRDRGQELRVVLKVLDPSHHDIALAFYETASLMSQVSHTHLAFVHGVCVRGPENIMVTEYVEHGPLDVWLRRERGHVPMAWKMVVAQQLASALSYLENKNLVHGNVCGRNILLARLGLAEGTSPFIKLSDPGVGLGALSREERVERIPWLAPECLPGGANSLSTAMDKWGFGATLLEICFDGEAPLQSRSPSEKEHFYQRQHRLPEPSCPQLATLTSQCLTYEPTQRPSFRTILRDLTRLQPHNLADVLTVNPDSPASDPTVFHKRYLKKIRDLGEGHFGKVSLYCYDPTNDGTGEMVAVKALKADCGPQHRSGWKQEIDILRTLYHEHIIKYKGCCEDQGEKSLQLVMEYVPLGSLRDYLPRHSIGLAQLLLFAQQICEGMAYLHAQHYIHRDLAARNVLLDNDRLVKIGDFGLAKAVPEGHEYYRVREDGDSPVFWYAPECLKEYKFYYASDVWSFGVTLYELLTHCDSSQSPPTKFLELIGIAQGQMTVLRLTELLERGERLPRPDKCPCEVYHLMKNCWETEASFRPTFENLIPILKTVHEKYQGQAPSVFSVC
T4 sequence (O60674 whole entry V617F): as the sequence (O60674 whole entry) above, with V617F counted along it
T1 sequence (P23458 whole entry): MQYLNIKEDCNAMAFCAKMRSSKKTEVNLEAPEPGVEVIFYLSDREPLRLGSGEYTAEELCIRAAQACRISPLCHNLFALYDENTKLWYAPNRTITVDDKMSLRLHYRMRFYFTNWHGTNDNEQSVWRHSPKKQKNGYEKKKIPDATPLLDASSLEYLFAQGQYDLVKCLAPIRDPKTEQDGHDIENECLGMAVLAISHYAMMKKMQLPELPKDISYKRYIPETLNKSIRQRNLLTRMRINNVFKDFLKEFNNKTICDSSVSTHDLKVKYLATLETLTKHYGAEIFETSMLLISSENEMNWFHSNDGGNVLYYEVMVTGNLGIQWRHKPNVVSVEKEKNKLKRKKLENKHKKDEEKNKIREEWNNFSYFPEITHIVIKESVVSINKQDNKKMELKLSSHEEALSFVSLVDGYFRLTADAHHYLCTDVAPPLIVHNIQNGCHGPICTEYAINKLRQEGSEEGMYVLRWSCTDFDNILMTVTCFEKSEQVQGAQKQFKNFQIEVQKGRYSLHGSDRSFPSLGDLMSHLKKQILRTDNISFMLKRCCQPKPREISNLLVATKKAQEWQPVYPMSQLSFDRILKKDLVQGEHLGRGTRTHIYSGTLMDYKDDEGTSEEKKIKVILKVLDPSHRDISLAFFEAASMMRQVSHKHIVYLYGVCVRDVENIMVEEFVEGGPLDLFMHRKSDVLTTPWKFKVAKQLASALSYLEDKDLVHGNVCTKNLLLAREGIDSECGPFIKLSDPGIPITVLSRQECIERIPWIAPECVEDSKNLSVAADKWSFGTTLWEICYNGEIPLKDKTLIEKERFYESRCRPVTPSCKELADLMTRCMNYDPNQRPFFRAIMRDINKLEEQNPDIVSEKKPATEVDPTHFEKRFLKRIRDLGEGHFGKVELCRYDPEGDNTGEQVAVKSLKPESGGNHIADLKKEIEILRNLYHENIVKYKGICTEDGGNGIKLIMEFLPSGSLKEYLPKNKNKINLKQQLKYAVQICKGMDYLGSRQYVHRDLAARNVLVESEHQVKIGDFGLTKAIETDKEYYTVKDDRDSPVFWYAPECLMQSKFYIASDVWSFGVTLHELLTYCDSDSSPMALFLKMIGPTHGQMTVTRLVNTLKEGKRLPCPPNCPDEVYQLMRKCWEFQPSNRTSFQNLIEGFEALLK

SMILES	IC50 (JAK1; [1]) [nM]	IC50 (TYK2; [2]) [nM]	IC50 (JAK2; [3]) [nM]	IC50 (JAK2V617F; [4]) [nM]	IC50 (JAK1; [5]) [nM]	IC50 (TYK2; [6]) [nM]	IC50 (JAK2; [7]) [nM]	IC50 (JAK2V617F; [8]) [nM]
COCCn1cc(Nc2ncc(C)c(-c3ccc(OCC(C)(C)C#N)c(F)c3)n2)cn1 [Example 19, 3-(2-fluoro-4-(2-((1-(2-methoxyethyl)-1H-pyrazol-4-yl)amino)-5-methylpyrimidin-4-yl)phenoxy)-2,2-dimethylpropanenitrile]	< 2.5	< 1.25	< 0.25	< 1.25				
COCCn1cc(Nc2ncc(C)c(-c3ccc(OCC4(C#N)CC4)c(F)c3)n2)cn1 [Example 21, 1-((2-fluoro-4-(2-((1-(2-methoxyethyl)-1H-pyrazol-4-yl)amino)-5-methylpyrimidin-4-yl)phenoxy)methyl)cyclopropane-carbonitrile]	7.31	< 1.25	< 0.25	< 1.25				
Cc1cnc(Nc2cnn(C3CC3)c2)nc1-c1ccc(N(C)CC2(C#N)CC2)c(F)c1 [Example 33, 1-(((4-(2-((1-cyclopropyl-1H-pyrazol-4-yl)amino)-5-methylpyrimidin-4-yl)-2-fluorophenyl)(methyl)amino)methyl) cyclopropanecarbonitrile]	10.8	30	< 0.25	6.16				
CCOc1ccc(-c2nc(Nc3cnn(C)c3)ncc2C)cc1F [Example 46, 4-(4-ethoxy-3-fluorophenyl)-5-methyl-N-(1-methyl-1H-pyrazol-4-yl)pyrimidin-2-amine, reference compound]					40.6	74.9	60.6	86.3
CCOc1ccc(-c2nc(Nc3cnn(C(C)C)c3)ncc2C)cc1F [Example 49, 4-(4-ethoxy-3-fluorophenyl)-N-(1-isopropyl-1H-pyrazol-4-yl)-5-methylpyrimidin-2-amine, reference compound]					52.6	41.3	80.7	103
CCOc1ccc(-c2nc(Nc3cnn(C)c3)ncc2C)cc1 [Example 50, 4-(4-ethoxyphenyl)-5-methyl-N-(1-methyl-1H-pyrazol-4-yl)pyrimidin-2-amine, reference compound]					151	157	201	343
